Reference: PubChem BioAssay (NCI)
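In this assay, cells in 96-well plates receive the compound at five concentrations for 48 hours. Endpoints are linearly interpolated between the surrounding concentrations. At the TGI there is no net growth.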

How the values were obtained:
Assay in all cases: growth of human tumour cells (NCI), 48 h
A498 renal = tested on: A498 renal
A549 NSCLC = tested on: A549 NSCLC
CAKI-1 renal = tested on: CAKI-1 renal
DLD-1 colon = tested on: DLD-1 colon
DMS 273 small cell lung = tested on: DMS 273 small cell lung
HT29 colon = tested on: HT29 colon
KM12 colon = tested on: KM12 colon
KM20L2 colon = tested on: KM20L2 colon
LOX IMVI melanoma = tested on: LOX IMVI melanoma
M14 melanoma = tested on: M14 melanoma
MOLT-4 leukemia = tested on: MOLT-4 leukemia
NCI-H23 lung = tested on: NCI-H23 lung
NCI-H522 lung = tested on: NCI-H522 lung
SK-MEL-5 melanoma = tested on: SK-MEL-5 melanoma
SW-620 colon = tested on: SW-620 colon
HCT-116 colon = tested on: HCT-116 colon
HOP-62 NSCLC = tested on: HOP-62 NSCLC
MCF7 breast = tested on: MCF7 breast
NCI/ADR-RES ovarian = tested on: NCI/ADR-RES ovarian
XF 498 CNS = tested on: XF 498 CNS

| SMILES | TGI (A498 renal) | TGI (A549 NSCLC) | TGI (CAKI-1 renal) | TGI (DLD-1 colon) | TGI (DMS 273 small cell lung) | TGI (HT29 colon) | TGI (KM12 colon) | TGI (KM20L2 colon) | TGI (LOX IMVI melanoma) | TGI (M14 melanoma) | TGI (MOLT-4 leukemia) | TGI (NCI-H23 lung) | TGI (NCI-H522 lung) | TGI (SK-MEL-5 melanoma) | TGI (SW-620 colon) | TGI (HCT-116 colon) | TGI (HOP-62 NSCLC) | TGI (MCF7 breast) | TGI (NCI/ADR-RES ovarian) | TGI (XF 498 CNS) |
| --- | --- | --- | --- | --- | --- | --- | --- | --- | --- | --- | --- | --- | --- | --- | --- | --- | --- | --- | --- | --- |
| O=C(c1ccccc1)c1ccc2n[se]nc2c1 | > 100 µM | > 100 µM | > 100 µM | > 100 µM | > 100 µM | > 100 µM | > 100 µM | > 100 µM | > 100 µM | > 100 µM | > 100 µM | > 100 µM | > 100 µM | > 100 µM | > 100 µM | – | – | – | – | – |
| CC1=C2C(O)C(C(C)C(=O)N(C)C)CCC2(C)C=CC1=O (stereo not given) | > 100 µM | > 100 µM | > 100 µM | > 100 µM | > 100 µM | > 100 µM | > 100 µM | > 100 µM | > 100 µM | – | > 100 µM | > 100 µM | > 100 µM | > 100 µM | > 100 µM | > 100 µM | > 100 µM | > 100 µM | > 100 µM | > 100 µM |
| CN(C)CCNC(=O)c1cccc2c(=O)c3ccccc3oc12 | 52.8 µM | > 100 µM | – | > 100 µM | > 91.2 µM | 98.7 µM | > 100 µM | > 100 µM | 43.4 µM | – | > 100 µM | > 100 µM | – | 60.5 µM | > 100 µM | > 100 µM | 97.5 µM | 74 µM | > 79.9 µM | > 93.9 µM |
| CCOP(=Nc1ccc(N(C)C)cc1)(OCC)OCC | > 100 µM | > 100 µM | > 100 µM | – | – | – | > 100 µM | – | – | > 100 µM | > 100 µM | > 100 µM | > 100 µM | > 100 µM | – | > 100 µM | > 100 µM | > 100 µM | > 100 µM | – |
| CCC1C[N+]23CCc4c([nH]c5ccccc45)C2CC1CC3 (stereo not given) | – | – | > 100 µM | > 100 µM | > 100 µM | > 100 µM | > 100 µM | > 100 µM | > 100 µM | > 100 µM | 95.2 µM | > 100 µM | > 100 µM | 48.9 µM | > 100 µM | > 100 µM | > 100 µM | – | – | > 100 µM |
